Data on 3 compounds can be found in patent publication EP0523085B1, “PEROXY ACID BLEACH PRECURSORS AND DETERGENT COMPOSITIONS CONTAINING THEM” (priority 1990, dated 1991).

Read-outs that look alike come from different tables or passages of the source.

A short description of data set [1]: water solubility at 10°C (saturated solution in distilled water). Format: physicochemical. How it is done: For the purposes of the present invention the solubility of a precursor in water is defined as the weight of the compound that can be dissolved in 100ml distilled water at 10°C, expressed on a percentage basis. Precursors in accordance with the invention have water solubilities of at least 25% by weight, more preferably at least 50% and most preferably at least 75%.
The water solubility of this material was determined by cooling 2.3g distilled water to 10°C and adding the precursor until no further material would dissolve. A slight excess was then added and the temperature raised to 25°C to give complete solution before recooling to 10°C, ensuring that crystallisation of the precursor took place from a saturated solution.

Data set [2] can be described thus: perhydrolysis with sodium perborate tetrahydrate at 10°C, iodometric titration. As to conditions: for rates of perhydrolysis, comparison of the two precursors: each predissolved (KDAES in distilled water, TAED in dimethyl formamide); for time for dissolution and perhydrolysis to be substantially complete: precursor added in solid form, KDAES assumed to be 82% active. As to the method:
A jacketed 1 litre glass vessel fitted with a magnetic stirrer was used to carry out the perhydrolysis and the temperature of the solution was controlled at 10°C by means of a Thermomix (RTM) cooling unit which was used to circulate the cooled water through a jacket around the perhydrolysis vessel
The value obtained for the blank was subtracted from the values obtained at the various time intervals to give the figure from which the percentage perhydrolysis was calculated.

For `CC(=O)N(CCS(=O)(=O)[O-])C(C)=O.[K+]` [KDAES, potassium N,N-diacetylaminoethane sulphonate], in data set [1] (distilled water, 10°C), the solubility is reported as 66.6%. Besides, in data set [1] (in 2.3g distilled water at 10°C), the “amount of the precursor dissolved” value came to 4.71 g. Moreover, in data set [2], the “rates of perhydrolysis, comparison of the two precursors” value is listed as “broadly similar”; the “time for dissolution and perhydrolysis to be substantially complete” value is at most 5 min.

In data set [1], `CC(=O)N(CCC[N+](C)(C)C)C(C)=O.[Br-]` [DTAPB, N,N-diacetyl trimethylammonio propylamine bromide] showed a solubility of 75.6%. Also, in data set [2] (solid product, on the basis of a purity of 97.6%), the “precursor perhydrolysed within 5 minutes” value is given as “approx. 92%”.

Regarding “tetra acetyl ethylene diamine [TAED, reference compound]”, in data set [2], the “rates of perhydrolysis, comparison of the two precursors” value is recorded as “broadly similar”; the “time for dissolution and perhydrolysis to be substantially complete” value was “at least 30 minutes”.
